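Cultured in 96-well plates, cells were exposed to test compound for 48 hours across five concentrations. At the GI50, growth is halved.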 Calls of active or inactive are those of the source. Cut-off read from the data, not from the text of the source: active = GI50 up to about 1.1 µM and inactive = higher.
Key:
Test in all cases: growth of human tumour cells (NCI), 48 h
SF-268 = test system: SF-268
MCF7 = test system: MCF7
KM12 = test system: KM12
ACHN = test system: ACHN
OVCAR-3 = test system: OVCAR-3
NCI/ADR-RES = test system: NCI/ADR-RES
MDA-MB-435 = test system: MDA-MB-435
IGROV-1 = test system: IGROV-1
HCC 2998 = test system: HCC 2998
SK-MEL-5 = test system: SK-MEL-5
DU-145 = test system: DU-145
K562 = test system: K562
SW-620 = test system: SW-620
SK-OV-3 = test system: SK-OV-3
SNB-19 = test system: SNB-19
HT-29 = test system: HT-29
NCI-H23 = test system: NCI-H23
OVCAR-8 = test system: OVCAR-8
MDA-MB-231 = test system: MDA-MB-231
NCI-H522 = test system: NCI-H522
SN12C = test system: SN12C
M14 = test system: M14
Hs-578T = test system: Hs-578T
PC-3 = test system: PC-3
BT-549 = test system: BT-549
NCI-H226 = test system: NCI-H226
CAKI-1 = test system: CAKI-1
OVCAR-4 = test system: OVCAR-4
UO-31 = test system: UO-31
UACC-62 = test system: UACC-62
CCRF-CEM = test system: CCRF-CEM
NCI-H460 = test system: NCI-H460
COLO 205 = test system: COLO 205
U-251 = test system: U-251
786-0 = test system: 786-0
A498 = test system: A498
MOLT-4 = test system: MOLT-4
SNB-75 = test system: SNB-75
Malme-3M = test system: Malme-3M
HCT-116 = test system: HCT-116
HCT-15 = test system: HCT-15
SK-MEL-2 = test system: SK-MEL-2
A549 = test system: A549
SF-295 = test system: SF-295
MDA-N = test system: MDA-N
SK-MEL-28 = test system: SK-MEL-28
RPMI-8226 = test system: RPMI-8226
RXF 393 = test system: RXF 393
EKVX = test system: EKVX
HL-60 = test system: HL-60
T47D = test system: T47D
HOP-62 = test system: HOP-62
SR = test system: SR
OVCAR-5 = test system: OVCAR-5
LOX IMVI = test system: LOX IMVI
TK-10 = test system: TK-10
UACC-257 = test system: UACC-257
SF-539 = test system: SF-539

Measured: GI50

COC(=O)[C@H](Cc1ccccc1)NC(=O)N(CCNC(=O)OC(C)(C)C)c1ccccc1
> 100 µM: HCT-15
inactive: SF-268 > 100 µM | MCF7 > 100 µM | KM12 > 100 µM | ACHN > 100 µM | OVCAR-3 > 100 µM | NCI/ADR-RES > 100 µM | MDA-MB-435 > 100 µM | IGROV-1 > 100 µM | HCC 2998 > 100 µM | SK-MEL-5 > 100 µM | DU-145 > 100 µM | K562 > 100 µM | SW-620 > 100 µM | SK-OV-3 > 100 µM | SNB-19 > 100 µM | HT-29 > 100 µM | NCI-H23 > 100 µM | OVCAR-8 > 100 µM | MDA-MB-231 > 100 µM | NCI-H522 > 100 µM | SN12C > 100 µM | M14 > 100 µM | Hs-578T > 100 µM | PC-3 > 100 µM | BT-549 > 100 µM | NCI-H226 > 100 µM | CAKI-1 > 100 µM | OVCAR-4 > 100 µM | UO-31 > 100 µM | UACC-62 > 100 µM | CCRF-CEM > 100 µM | NCI-H460 > 100 µM | COLO 205 > 100 µM | U-251 > 100 µM | 786-0 > 100 µM | A498 > 100 µM | MOLT-4 > 100 µM | SNB-75 > 100 µM | Malme-3M > 100 µM | HCT-116 > 100 µM | SK-MEL-2 > 100 µM | A549 > 100 µM | SF-295 > 100 µM | MDA-N > 100 µM | SK-MEL-28 > 100 µM | RPMI-8226 > 100 µM | RXF 393 87.1 µM | EKVX > 100 µM | HL-60 > 100 µM | T47D 51.4 µM | HOP-62 > 100 µM | SR > 100 µM | OVCAR-5 > 100 µM | LOX IMVI > 100 µM

CO[C@]1(c2ccc([N+](=O)[O-])cc2)Oc2ccccc2C(=O)[C@@]1(Nc1ccc(C=O)cc1)OC
inactive: SF-268 > 10 µM | MCF7 > 10 µM | KM12 > 10 µM | ACHN > 10 µM | OVCAR-3 > 10 µM | NCI/ADR-RES > 10 µM | MDA-MB-435 > 10 µM | IGROV-1 > 10 µM | HCC 2998 > 10 µM | SK-MEL-5 > 10 µM | DU-145 > 10 µM | K562 > 10 µM | SW-620 > 10 µM | SK-OV-3 > 10 µM | SNB-19 > 10 µM | HT-29 > 10 µM | NCI-H23 > 10 µM | TK-10 > 10 µM | OVCAR-8 > 10 µM | MDA-MB-231 > 10 µM | SN12C > 10 µM | M14 > 10 µM | Hs-578T > 10 µM | PC-3 > 10 µM | BT-549 > 10 µM | NCI-H226 > 10 µM | CAKI-1 > 10 µM | OVCAR-4 > 10 µM | UO-31 > 10 µM | UACC-62 > 10 µM | UACC-257 > 10 µM | CCRF-CEM > 10 µM | NCI-H460 > 10 µM | COLO 205 > 10 µM | U-251 > 10 µM | 786-0 > 10 µM | A498 > 10 µM | MOLT-4 > 10 µM | SNB-75 > 10 µM | Malme-3M > 10 µM | HCT-116 > 10 µM | SK-MEL-2 > 10 µM | SF-539 > 10 µM | A549 > 10 µM | SF-295 > 10 µM | MDA-N > 10 µM | SK-MEL-28 > 10 µM | RPMI-8226 > 10 µM | RXF 393 > 10 µM | EKVX > 10 µM | HL-60 > 10 µM | T47D > 10 µM | HOP-62 > 10 µM | SR > 10 µM | OVCAR-5 > 10 µM | LOX IMVI > 10 µM
> 10 µM: HCT-15

CSc1c(C(=O)Nc2ccc(Cl)cc2)c(N)n(N)c(=O)c1C#N
77.4 µM: HCT-15
inactive: SF-268 > 100 µM | MCF7 75.3 µM | KM12 45.9 µM | OVCAR-3 48.8 µM | NCI/ADR-RES 58.1 µM | MDA-MB-435 > 100 µM | HCC 2998 54.1 µM | SK-MEL-5 > 100 µM | DU-145 > 100 µM | K562 46.6 µM | SW-620 95.5 µM | SK-OV-3 > 100 µM | SNB-19 > 100 µM | HT-29 > 100 µM | NCI-H23 61.5 µM | TK-10 > 100 µM | OVCAR-8 55.2 µM | MDA-MB-231 > 100 µM | NCI-H522 25.7 µM | SN12C > 100 µM | M14 51.6 µM | Hs-578T > 100 µM | PC-3 79.8 µM | BT-549 > 100 µM | NCI-H226 89.7 µM | CAKI-1 34.2 µM | OVCAR-4 68.5 µM | UO-31 31.6 µM | UACC-62 24.5 µM | UACC-257 > 100 µM | CCRF-CEM 42.4 µM | NCI-H460 > 100 µM | COLO 205 > 100 µM | U-251 > 100 µM | 786-0 > 100 µM | A498 36 µM | MOLT-4 76.9 µM | SNB-75 > 100 µM | Malme-3M > 100 µM | HCT-116 32.6 µM | SK-MEL-2 > 100 µM | SF-539 > 100 µM | A549 > 100 µM | MDA-N > 100 µM | SK-MEL-28 > 100 µM | RPMI-8226 57.4 µM | RXF 393 > 100 µM | EKVX > 100 µM | HL-60 78.7 µM | T47D 31.3 µM | SR > 100 µM | OVCAR-5 58.9 µM | LOX IMVI 31.8 µM

— ChEMBL document CHEMBL1201862, “PubChem BioAssay data set” (2004)
